Test results taken from a melting point compilation (Tetko et al.; mined from patent text by program, amines drawn as free bases though some values may be those of a salt).

Compound	melting point [°C]
O=C(NC(=NCCCc1c[nH]cn1)NCCSCc1csc(N=C2NCCCN2)n1)c1ccccc1	175 to 176
COc1ccccc1-c1nsc2ccc([N+](=O)[O-])cc12	193 to 198
CC1(C)NC(=O)N(CC(CCS(=O)(=O)c2ccc(-c3ccc(C(F)(F)F)cc3)cc2)N(O)C=O)C1=O (stereo not given)	125
COC(=O)CC(=O)C1CCC2C3CCC4CC(O)CCC4(C)C3C(=O)CC12C (stereo not given)	150 to 152
Cc1cc(C(N)=O)nn1CCO	170 to 172
COC(=O)CCn1c(=O)n2n(c1=O)C(C(=O)O)C=CC2 (stereo not given)	150 to 153
Cc1nc(Cl)c2c(c1O)COC2c1ccccc1 (stereo not given)	230
Cn1ncc2c1-c1c(Cc3ccccc3)sc(C(N)=O)c1CC2	96 to 97
COc1ccccc1C1(Cc2ccccc2)C(=O)N(C)c2ccccc21 (stereo not given)	174 to 176
Cc1nccc(C(=O)O)c1-c1nc(-c2ccc(Cl)cc2)cs1	92 to 94
O=C(CCl)NC(C(=O)O)N(C(=O)CCl)c1cscn1 (stereo not given)	184 to 186
COC(=O)n1nnnc1-c1cnc2ccccn2c1=O	182 to 183
CC(=O)OCc1ccc2sc(S(N)(=O)=O)cc2c1	113 to 115
O=C(CCCCc1ccccc1)Nc1ccc(C(=O)O)cc1	227 to 230
Cc1ccc2c3c(ccc2n1)OCC(CN1CC=C(c2c[nH]c4c(F)cccc24)CC1)O3 (stereo not given)	205 to 210
Cn1ncc(C(=O)O)c1C(=O)Nc1ccn2nc(-c3cccc(F)c3)nc2c1	> 260
Nc1ncnc2[nH]cc(-c3ccccc3)c12	238 to 239
O=C(Nc1ccc(Br)cc1-c1noc(=O)[nH]1)c1cccc(S(=O)(=O)N2CCOCC2)c1	220 to 223
COc1cc(O)cc2nc(-c3ccc(O)cc3)oc12	225 to 228
COc1ccc(CN2C(=O)C3(COc4cc5c(cc43)OCCO5)c3ccccc32)cc1OC (stereo not given)	209 to 211
O=[N+]([O-])c1ccc2c(c1)N(C1CCN(CCc3ccc(F)cc3)CC1)CC2	104 to 106
CCOC(=O)Nn1cccc1C(=O)c1ccccc1	68 to 70
C[C@H]1[C@H](N(C)C(=O)C(F)(F)F)CN1c1c(F)cc2c(=O)c(C(=O)O)cn(C3CC3)c2c1F (relative stereo)	246 to 249

Compound	melting point [°C]
N#Cc1cccc(-n2cnc(-c3ccccn3)n2)c1	194 to 195
O=C(c1ccc(Br)cc1)c1cccc2cc[nH]c12	162 to 164
Cc1cccc(-c2n[nH]cc2-c2ccnc(-c3ccc(OCc4cn(C)cn4)cc3)c2)n1	191
COc1ccc2c(c1)[nH]c1c(C)c(OS(=O)(=O)c3cccc4c(N(C)C)cccc34)ccc12	174
CCCOc1ccc2c(c1)C(c1ccc(OC)cc1-c1cccc(C(=O)O)c1)C(C(=O)O)C2c1ccc2c(c1)OCO2 (stereo not given)	257 to 268
CCn1c(-c2ccc(OC)c(OC)c2)cc(=Nc2c(C)cc(C)cc2C)n(C)c1=O	57 to 61
Cc1c(Cl)cccc1S(=O)(=O)Nc1ccc2occ(C)c2c1	120
Oc1nc2cc(Cl)cc(Cl)c2c(O)c1O	270 to 273
CC(=O)OC[C@@H]1C=C[C@H](n2cnc3c(=O)[nH]c(N)nc32)C1	247 to 249
O=C(O)C(=O)N1CN(C(=O)c2c(F)cccc2F)C(=O)N(c2ccc(Oc3ccc(C(F)(F)F)cc3Cl)cc2F)C1	67 to 72
CCC1COC(=O)C(=CC(=O)OC)N1 (stereo not given)	68 to 70
CCNC(=O)COC1CCN(Cc2cnc3cc(NC(=O)c4ccc(-c5ccc(F)cc5)cc4)ccc3c2)CC1	228 to 230
O=C(O)c1ccc2c(oc3ccccc32)c1C(=O)O	260 to 262
N#Cc1ccccc1-c1ccc(CCl)cc1	125 to 126
CSc1nnc(-c2ccc3ncn(-c4ccc(OC(F)(F)F)cc4)c3c2)o1	200 to 201
O=C(NO)c1ccc(CNC(=O)c2[nH]c(-c3ccccc3)cc2-c2ccc(O)cc2)cc1	139 to 141
O=C1Nc2ccc(Cl)cc2C1(Cl)c1cccc(F)c1F (stereo not given)	248
Cc1cc(C)c2c(c1)nc(N(CCN1CCOCC1)C1CCNCC1)n2Cc1nc(C)ccc1O	226
CC(O)(c1ccc(Oc2ccccc2)cc1)c1cccnc1 (stereo not given)	130 to 132
COc1cc2ccc(C(=O)c3ccccc3)cc2cc1OC	124 to 125
Cc1cc(SC2=C(O)C[C@@](CCc3ccc(O)cc3)(C(C)C)OC2=O)c(C(C)C)c2sc(N)nc12	232 to 234
CCCCCc1cc2c(nc(O)n2CC2CCOCC2)c(N)n1	> 250
CC(CN=C1c2cccc3cccc(c23)N1C(c1ccccc1)c1ccccc1)Cn1ccnc1 (stereo not given)	51 to 56

Compound	melting point [°C]
CCn1c(=O)n(O)c(=O)c2cc(F)c(N3CCOCC3)cc21	162 to 163
Cc1cccc(C(=O)Nc2c[nH]nc2C(=O)NCCC(=O)O)n1	246 to 247
CC(Sc1ccccc1)C1C=CCC1C(N)=O (stereo not given)	109
NC1=NC(c2cccc(-c3cccnc3F)c2)(c2ccc3c(c2)OC(F)(F)O3)C2=NCCCN12 (stereo not given)	95 to 99
CCCn1c(=O)c2c(nc(/C=C/c3ccc(OC)cc3)n2C)n(CCC)c1=O	160 to 161
O=C1Nc2ccc(F)c(F)c2[C@@](C#CC2CC2)(C(F)(F)F)O[C@H]1C1CC1 (relative stereo)	222
N#Cc1cccc(NC(=O)n2ccnc2)c1	174 to 176
CCCc1ccnc(C(=O)OCC)c1N	93 to 96
CCCCN1CCC(C(=O)NO)(S(=O)(=O)c2ccc(OC)cc2)CC1	75
CO/N=C/C1=NNC(=O)N(/N=C/c2cccnc2)C1	237 to 238
Cc1cc2c3c(c1)NC(=O)c1ccccc1N3CC2	222 to 224
CCc1ccc2ncc(CO)c(OC(C)C)c2c1	43 to 46
O=c1[nH]c(=S)c2[nH]cnc2n1Cc1ccccc1	262 to 263
O=[N+]([O-])c1ccccc1NC(CO)c1c(Cl)cccc1Cl (stereo not given)	128
COc1ccc(N2CCN(c3c(C)c(C)c4c(c3C)C(N3CCc5ccccc5C3)C(C)(C)O4)CC2)cc1 (stereo not given)	144 to 145
NS(=O)(=O)c1cc(C(=O)O)cc([N+](=O)[O-])c1Oc1ccccc1	255 to 256
Cc1cc2c(cc1C)C(=O)C(Nc1ccccc1)=CC2=O	208 to 210
CCC1=Cc2cc3c(cc2C(c2ccc([N+](=O)[O-])cc2)=NN1C(C)=O)OCO3	132 to 134
Cn1cc(C(=O)O)c(=O)c2c3cc(F)c(N4CCCC4)cc3ncc21	365
COc1ccc(-n2cc(C(=O)O)c(C)n2)cc1	176 to 178
CCOC(=O)c1nc2ccc(N)cc2c(=O)[nH]1	233 to 235

Results, then the compound that gave them:

melting point [°C]	Compound
96 to 98	Cc1ccccc1CN(CC(=O)OC(C)(C)C)S(=O)(=O)c1ccc2c(Cl)cnc(Cl)c2c1
167 to 169	FC(F)(F)c1cnc2nc1Nc1cccc(c1)/C=C\c1cccc(c1)N2
211 to 214	Cc1noc(NS(=O)(=O)c2ccccc2-c2ccc(-c3ccncn3)cc2)c1C
211 to 213	O=C(CCl)NC(NC(=O)c1ccccc1)C(Cl)(Cl)Cl (stereo not given)
109	CC(=Cc1ccc2ccccc2c1)c1ccc(C)cc1
235 to 238	CCOC(=O)CCCCCOC(=O)c1c(I)c(NC(C)=O)c(I)c(NC(C)=O)c1I
152 to 154	CC(C)N1C(=O)c2cnc(-c3ccccc3)nc2N(C(=O)CN2CCCCC2)c2ccccc21
175 to 176	CN(C)CC(=O)Nc1c(C(=O)c2ccccc2)[nH]c2cc(Cl)ccc12
176 to 178	O=C(Nc1ccc(S(=O)(=O)Cl)cc1)c1ccccc1
173 to 174	N#CCCNC(=O)C1=CC(CF)(CF)Oc2ccc([N+](=O)[O-])cc21
71	C=CCOc1ccc(C(=O)c2ccccc2)cc1
139 to 140	CCCC(OC)c1ccc(Cl)c2nc3n(c12)CCCN3c1ccc(Cl)cc1Cl (stereo not given)
210 to 212	O=C1CCC(c2ccccc2F)c2ccccc2N1 (stereo not given)
162 to 164	COC(=O)c1c(Cc2ccc(C(=O)NCCO)cc2)c(=O)c2ccc(Cl)cc2n1-c1ccccc1
107 to 108	CC(Cc1cccc(N)c1)NC=O (stereo not given)
168 to 171	COc1ccc(C(=O)Nc2ccccc2)cc1NC(=O)CC(=O)OCc1ccccc1
198	Cc1cccc(-c2n[nH]cc2-c2ccnc(-c3ccc(C#N)cc3)c2)n1

melting point [°C]	Compound
84 to 85.5	CCCCC/C(=C\C=C\C(=O)O)c1cccc(F)c1
118 to 121	CCn1c(C)nc2cc(C(=O)OC)ccc21
165 to 166	N#Cc1cncc(-c2cccc(OCc3ccccc3)c2)c1Nc1ccc2[nH]ccc2c1
198 to 200	CCNC(=O)/C=C(C)/C=C/C=C(C)/C=C/c1c(C)cc(OC(F)(F)F)c(C)c1C
201 to 203	Cc1ccc(-c2cc3c(s2)CCCC(C(=O)Nc2ccc(CN(C)C4CCOCC4)cc2)=C3)cc1
168 to 173	Cn1nc(-c2ccccc2S(N)(=O)=O)oc1=O
160	Cc1cc(Br)cc(C(=O)Nc2ccc(F)cn2)n1
108 to 110	O=C(CBr)c1ccc2nnnn2c1
146 to 148	O=C(c1ccccc1)c1nc(Br)ccc1[N+](=O)[O-]
95 to 99	Cc1cc(OC2SCC(O)C(O)C2O)c(-c2ccnn2-c2ccccc2)cc1Cl (stereo not given)
180 to 183	O=C(c1cocc1C(=O)N1CCCCC1)N1CCCCC1
230	O=C(Nc1cccc(S(=O)(=O)NCc2ccccc2)c1)c1cnn2c(C(F)F)cc(-c3ccc(C(F)(F)F)cc3)nc12
153	O=C(c1ccc(I)cc1)c1ccc2nc(Cl)nc(-c3cccc(Cl)c3)c2c1
218 to 220	Cc1ccc(C(C)(C)C)c(O)c1-c1nc2cc(S(=O)(=O)C(F)(F)F)ccc2[nH]1
128 to 130	CCCCCCCc1cc2cn(C(CC)CC)c(=O)nc2o1
150 to 163	Cc1cc2nc(SCC(F)(F)F)[nH]c2cc1C
